Measurements: patent publication US11458175B2, “Composition comprising Lactobacillus plantarum CJLP475 strain and Lactobacillus plantarum CJLP243 strain and use thereof” (CJ CHEILJEDANG CORPORATION, priority 2018, dated 2022)

Columns and labels:
[1] = Bile-resistance assessment in artificial bile medium (viable cell count); assay type: physicochemical; conditions: artificial bile medium (MRS with 0.5% oxgall), 37° C.
Description: An artificial bile medium was prepared for the assessment of bile-resistance. More specifically, the artificial bile medium was prepared by adding 0.5% oxgall (bull bile) to a liquid MRS medium, followed by sterilization.
(§1) The strains of Example 1 were subjected to a static culture in a liquid MRS medium at 37° C. for 18 hours after the second subculture. 1% of the pre-incubated strains were inoculated to the artificial bile medium and subjected to a static culture at 37° C., and the culture broth was sampled at 0 hour and 24 hours. The sampled culture broth was serial diluted and smeared on the solid MRS medium, and incubated at 37° C. for 48 hours to measure viable cell count.
(§2) In order to compare the acid-resistance and bile-resistance of the Lactobacillus plantarum CJLP475 strain and the Lactobacillus plantarum CJLP243 strain with those of the conventionally known strains, the acid-resistance and the bile-resistance of the Lactobacillus plantarum standard strain (KCCM12116) obtained from the Korean Culture Center of Microorganisms were assessed in the same manner as the above method.

sows = experiment: Effect on immunity and colostrum of sows (IgA and IgG ELISA); assay type: in vivo; conditions: vs control; for total IgA content in the serum of sows / total IgG content in the serum of sows: sows fed 10^10 to 10^11 CFU per day for 4 weeks
Description: An experiment was carried out in order to confirm the effect of the composition including the Lactobacillus plantarum CJLP475 strain and the Lactobacillus plantarum CJLP243 strain on the immunity and colostrum of sows when the composition was given to the sows, as follows: fifteen sows at 6 weeks before delivery in the same delivery period were selected randomly for each experimental group from the farms in which no PED virus had occurred. All of the sows used in the experiment were inoculated with the PED virus vaccine at 5 weeks and 2 weeks before delivery. The experiment was carried out in a total of four experimental groups, i.e., a control group in which no strain was fed, a group fed with CJLP475 alone, a group fed with CJLP243 alone, and a group fed with the composition including CJLP475 strain and CJLP243 strain. The feed was given in the form of common feeds without antibiotics, and water was given to be consumed freely. The Lactobacillus plantarum CJLP475 strain, the Lactobacillus plantarum CJLP243 strain, and the composition were produced in the form of freeze-dried powder and stored in a refrigerator, and then added on top of the feed when given to the sows so that each sow was given the feed in an amount of 10^10 to 10^11 CFU per day according to the treatment conditions. The sows were fed for a total of 4 weeks, and then the serum and colostrum of the sows were examined using an IgA and IgG ELISA kit.

[2] = system: red blood cells (sheep blood 5% agar); experiment: Hemolytic activity on blood agar plates; assay type: cell-based; conditions: 37° C., 24 hours
Description: […]-Hemolysis is a phenomenon in which phospholipids supplied by red blood cells are hydrolyzed by phospholipid enzymes produced from harmful bacteria, resulting in hemolysis of red blood cells. In order to determine the hemolytic activity of the Lactobacillus plantarum CJLP475 strain and the Lactobacillus plantarum CJLP243 strain, blood agar plates (sheep blood 5% agar, Hanilkomed, Korea) were used. The strains were streaked into the prepared blood agar plates and incubated at 37° C. for 24 hours to confirm the hemolysis.

PED virus SM98 = experiment: Inhibition of PED virus infection by immune cells of weaned piglets fed with the strains; assay type: in vivo; design: key: ++: Complete Inhibition; +: Partial Inhibition; −: Infected; conditions: piglets fed 10^10 CFU per day for 3 weeks; for Inhibitory Effect against PED virus infection, mLN, SM98: immune cells of mesenteric lymph nodes; for Inhibitory Effect against PED virus infection, Spin, SM98: immune cells of spleen
Description: (§3) In order to confirm the effect of the composition including the Lactobacillus plantarum CJLP243 strain and the Lactobacillus plantarum CJLP475 strain on the immunity upon feeding, an experiment was carried out as follows:
(§4) Thirty-two 21-day-old weaned piglets were purchased and raised in a container farm for 3 weeks. The feed was given in the form of common crumble feeds without antibiotics. The composition including the Lactobacillus plantarum CJLP475 strain and the Lactobacillus plantarum CJLP243 strain was produced in the form of freeze-dried powder and stored in a refrigerator, and each piglet was given the feed in an amount of 10^10 CFU per day. After 3 weeks of oral administration, four piglets per treatment group were autopsied to collect blood and tissue samples so as to determine the effect of the composition on the immunity of the piglets.
(§5) In order to obtain immune cells from the spleen (Spin) and the mesenteric lymph nodes (mLN), the chopped tissue was powdered using a plunger of a syringe and a 70-micrometer cell strainer (BD Falcon), and then the cells were washed using an RPMI-1640 medium (Roswell Park Memorial Institute-1640, Gibco BRL, Grand Island, N.Y., USA). The remaining RBCs (red blood cells) were removed using an RBC lysis buffer (eBioscience, USA) prior to the last washing step. The immune cells collected after the last washing step were stained with Trypan blue and counted with a hemocytometer to be used.
(§6) For evaluation of the inhibitory effect against viral infection, PED virus was incubated in the same manner as in Example 6 described above, and the content thereof was measured. The immune cells obtained from the weaned piglets without feeding of the composition were used as a negative control.

PED virus KPEDV9 = experiment: as above; assay type: in vivo; design: key: ++: Complete Inhibition; +: Partial Inhibition; −: Infected; conditions: piglets fed 10^10 CFU per day for 3 weeks; for Inhibitory Effect against PED virus infection, mLN, KPEDV9: immune cells of mesenteric lymph nodes; for Inhibitory Effect against PED virus infection, Spin, KPEDV9: immune cells of spleen
Description: as §3, §4, §5, §6

[3] = Antibiotic susceptibility test with antibiotic discs; conditions: for resistance to antibiotics: ampicillin, clindamycin, gentamicin, kanamycin, erythromycin, ampicillin/sulbactam, chloramphenicol, streptomycin discs
Description: The Lactobacillus plantarum CJLP475 strain and the Lactobacillus plantarum CJLP243 strain were independently inoculated into a liquid MRS medium and subjected to a static culture at 37° C. for 24 hours. The thus-cultured bacteria were soaked in sterilized cotton swabs and smeared on a Mueller Hinton II solid medium (Difco), and then antibiotic discs were placed on the medium and incubated at 37° C. for 24 hours. Ampicillin, clindamycin, gentamicin, kanamycin, erythromycin, ampicillin/sulbactam, chloramphenicol, and streptomycin discs (Oxoid, UK) were used as antibiotic discs for the antibiotic test.

[4] = system: porcine epidemic diarrhea virus (PEDV, SM98 or KPEDV9 strain); experiment: Inhibitory effect against viral infection, PBMC culture broth on IPEC-J2 cells; assay type: cell-based; conditions: PBMC culture broth on IPEC-J2, PED virus 100 TCID50/mL, 48 hours
Description: In order to measure the inhibitory effect of the composition including the Lactobacillus plantarum CJLP475 strain and the Lactobacillus plantarum CJLP243 strain against viral infection, porcine epidemic diarrhea virus (PEDV, SM98 or KPEDV9 strain) was prepared. Specifically, the virus was proliferated in Vero cells (CCL-81, kidney epithelial cells extracted from Chlorocebus), and MEM (Eagle's Minimum Essential Medium, Gibco BRL, USA), heat-inactivated 10% FBS (fetal bovine serum, v/v) and 1% (v/v) penicillin/streptomycin were as the media for culturing Vero cells. The Vero cells were incubated as a monolayer, washed twice with the media, and then all the solutions were removed. The virus was mixed at 0.1 MOI (multiplicity of infection) level in FBS-free MEM containing trypsin treated with 5 μg/ml TPCK (N-tosyl-L-phenylalanine chloromethyl ketone), treated with a minimal volume of the prepared culture cells, and then incubated in a 37° C. cell incubator containing 5% CO2 for 2 to 3 days.
The viral infection was determined by the formation of virus syncytia. […] Subsequently, the cells were added with a culture broth, in which the virus was subjected to a 2-fold serial dilution, and incubated for 24 to 48 hours to confirm viral infection, and the virus titer was calculated by the Reed & Muench method. […]

[5] = Acid-resistance assessment in artificial gastric juice medium (viable cell count); assay type: physicochemical; conditions: artificial gastric juice medium (MRS with pepsin, pH 2.5), 37° C.
Description: An artificial gastric juice medium was prepared for the assessment of acid-resistance. More specifically, the artificial gastric juice medium was prepared by adding pepsin to a liquid MRS medium so as to adjust the pH to 2.5, followed by sterilization.
as §1, with “gastric juice” for “bile”, “3” for “24”
as §2

piglets = experiment: Immunity of piglets born from fed sows (IgA ELISA); assay type: in vivo; conditions: 4 days after given colostrum, vs control
Description: In order to confirm the effect of the composition including the Lactobacillus plantarum CJLP475 strain and the Lactobacillus plantarum CJLP243 strain on the immunity of piglets born from the sows fed with the composition, an experiment was carried out using sows as in Example 9. Further, blood was collected from the piglets born from the sows 4 days after given colostrum to carry out an immunological analysis using an IgA ELISA kit.

| Substance | Bile-Resistance Assessment, viable cell count 0 hr [1] | Bile-Resistance Assessment, viable cell count 24 hrs [1] | total IgA content in the serum of sows (sows) | total IgG content in the serum of sows (sows) | hemolysis [2] | Inhibitory Effect against PED virus infection, mLN, SM98 (PED virus SM98) | Inhibitory Effect against PED virus infection, Spin, SM98 (PED virus SM98) | Inhibitory Effect against PED virus infection, mLN, KPEDV9 (PED virus KPEDV9) | Inhibitory Effect against PED virus infection, Spin, KPEDV9 (PED virus KPEDV9) | resistance to antibiotics [3] | inhibitory effect against PED virus infection (microscopy, crystal violet) [4] | Acid-Resistance Assessment, viable cell count 0 hr [5] | Acid-Resistance Assessment, viable cell count 3 hrs [5] | other results |
| --- | --- | --- | --- | --- | --- | --- | --- | --- | --- | --- | --- | --- | --- | --- |
| Lactobacillus plantarum CJLP243 | 3.2 × 10^7 CFU/mL | 7.3 × 10^8 CFU/mL | higher than those in the control group | higher than those in the control group | did not show hemolysis | + | ++ | ++ | ++ | not resistant | the virus infection was suppressed | 4.5 × 10^7 CFU/mL | 4.4 × 10^7 CFU/mL | – |
| Lactobacillus plantarum CJLP475 | 1.3 × 10^8 CFU/mL | 1.1 × 10^7 CFU/mL | higher than those in the control group | higher than those in the control group | did not show hemolysis | ++ | ++ | ++ | ++ | not resistant | the virus infection was suppressed | 1.1 × 10^6 CFU/mL | 1.1 × 10^7 CFU/mL | total IgA antibody titer in the colostrum (sows; sow colostrum during delivery): higher; total IgA content in the piglet serum (piglets): higher; Radius of Growth Inhibition Area Centered Around Antibiotics ([3]; Amp10 (Ampicillin) disc): 7.5 mm; Radius of Growth Inhibition Area Centered Around Antibiotics ([3]; C30 (Clindamycin) disc): 7 mm; Radius of Growth Inhibition Area Centered Around Antibiotics ([3]; CN120 (Gentamicin) disc): 5 mm; Radius of Growth Inhibition Area Centered Around Antibiotics ([3]; DA2 (Streptomycin) disc): 4.5 mm; Radius of Growth Inhibition Area Centered Around Antibiotics ([3]; E15 (Erythromycin) disc): 12 mm; Radius of Growth Inhibition Area Centered Around Antibiotics ([3]; K30 (Kanamycin) disc): 1.5 mm; Radius of Growth Inhibition Area Centered Around Antibiotics ([3]; S10 (Chloramphenicol) disc): 3.5 mm; Radius of Growth Inhibition Area Centered Around Antibiotics ([3]; SAM20 (Ampicillin/Sulbactam) disc): 7 mm |
